# Tests used:
# [1] = molecular target: T1, human MR (Homo sapiens, UniProt P08235); test: Mineralocorticoid Receptor Binding Assay ([3H]-aldosterone displacement); conditions: full length human MR expressed in Sf9 cells, 0.5 nM [3H]-aldosterone
# T1 construct: The full length human MR gene is cloned from a human kidney or human brain cDNA library; made in house; host or cells: Sf9 insect cells (baculovirus, pAcHLT transfer vector)
# T1 sequence (P08235 1-984): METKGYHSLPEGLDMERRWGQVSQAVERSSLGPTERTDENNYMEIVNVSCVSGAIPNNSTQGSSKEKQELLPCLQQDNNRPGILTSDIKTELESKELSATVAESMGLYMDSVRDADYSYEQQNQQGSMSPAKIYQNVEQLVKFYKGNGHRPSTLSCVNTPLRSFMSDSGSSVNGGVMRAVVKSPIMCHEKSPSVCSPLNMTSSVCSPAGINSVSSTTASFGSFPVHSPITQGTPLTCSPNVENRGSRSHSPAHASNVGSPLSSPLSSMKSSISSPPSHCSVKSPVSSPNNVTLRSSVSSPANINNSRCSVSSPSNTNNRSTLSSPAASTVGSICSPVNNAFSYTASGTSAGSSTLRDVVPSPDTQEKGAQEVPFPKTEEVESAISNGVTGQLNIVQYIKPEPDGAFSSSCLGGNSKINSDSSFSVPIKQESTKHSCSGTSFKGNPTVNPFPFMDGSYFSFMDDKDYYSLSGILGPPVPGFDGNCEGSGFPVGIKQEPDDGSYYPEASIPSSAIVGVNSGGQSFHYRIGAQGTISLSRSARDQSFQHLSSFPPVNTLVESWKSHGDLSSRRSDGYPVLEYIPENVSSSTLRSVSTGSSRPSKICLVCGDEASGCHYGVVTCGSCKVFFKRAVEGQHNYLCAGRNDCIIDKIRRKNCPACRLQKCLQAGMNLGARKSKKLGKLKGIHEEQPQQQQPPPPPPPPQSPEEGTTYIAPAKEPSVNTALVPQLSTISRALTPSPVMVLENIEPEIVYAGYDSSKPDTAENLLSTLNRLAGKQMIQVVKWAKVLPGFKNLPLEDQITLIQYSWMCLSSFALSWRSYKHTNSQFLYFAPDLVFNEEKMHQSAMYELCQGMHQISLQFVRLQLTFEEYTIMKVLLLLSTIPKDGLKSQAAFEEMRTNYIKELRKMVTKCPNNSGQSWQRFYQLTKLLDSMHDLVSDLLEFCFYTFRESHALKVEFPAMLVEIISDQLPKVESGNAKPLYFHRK
# Method: Mineralocorticoid Receptor Binding Assay:
# The full length human MR gene is cloned from a human kidney or human brain cDNA library. Briefly, using synthetic oligonucleotide primers (Eli Lilly and Company, Indianapolis) directed to nucleotides 20-54 and 3700-3666 of the human MR, polymerase chain reaction (PCR) is performed under standard conditions using a human cDNA library. The PCR reaction is performed in a final volume of 50 μl containing about 1 μl of a 50× stock solution of polymerase; about 1 μl of a 50× stock solution of dNTP; about 5 μl of an appropriate PCR buffer; about 1 μl of each primer; about 5 μl of a H. kidney or H. brain cDNA library; and about 36 μl of water. The reaction is allowed to denature for about 30 seconds at 95 degrees Celsius, anneal for about 30 seconds at 55 degrees Celsius, and extend for about 5 minutes at 72 degrees Celsius, the sequence being repeated for a total of about 35 cycles. The desired PCR product (3.68 Kb) is confirmed by gel electrophoresis and subsequently cut from the gel and stored at about −20 degrees Celsius until extraction. To extract the cDNA product from the agarose gel, the QIAEX II Gel Extraction protocol (QIAGEN, Inc.) is employed according to the manufacturer's instructions. Following extraction, the MR cDNA is cloned into an appropriate cloning vector (Zero Blunt TOPO PCR Cloning Kit (Invitrogen, Inc.) and a pAcHLT-baculovirus transfer vector (B.D./Pharminogen), then expressed in SF9 insect cells, essentially according to manufacturer's instructions. Sf9 cells are grown at a scale where gram quantity cell pellets are obtained for subsequent use in the MR binding assay. Harvested cell pellets are lysed by repeated freeze-thaw cycles (about 4) in a suitable lysis buffer then centrifuged at about 1×10^3 G (with the supernatant being saved for future assays).
# MR binding assays are performed in a final total volume of about 250 μl containing about 20-25 μg of protein and 0.5 nM of [^3H]-aldosterone plus varying concentrations of test compound or vehicle. The assay binding buffer consists of 30 mM sodium molybdate, 30 mM of TRIS-HCl, 5 mM sodium phosphate, 5 mM sodium pyrophosphate, and about 10% glycerol, pH=7.5.
# Briefly, assays are prepared at RT in 96-well Falcon 3072 plates, each well containing 210 μl of binding buffer, 10 μl of [^3H]-aldosterone, 10 μl of test compound/vehicle, and 20 μl of the resuspended receptor protein extract. Incubations are carried out at 4 degrees Celsius with shaking for about 16 hours. 200 μl aliquots of each incubation are filtered onto Millipore HA 0.45 micron 96-well filter plates, pre-moistened with cold 30 mM TRIS-HCl. The filter plates are suctioned dry with vacuum and immediately washed 3× with cold 30 mM TRIS-HCl. The plates are then punched out and the amount of receptor-ligand complex is determined by liquid scintillation counting using 4 ml of Ready Protein Plus™ liquid scintillation cocktail.
# IC50 values (defined as the concentration of test compound required to decrease [^3H]-aldosterone binding by 50%) are then determined. Ki values for each respective test compound can then be calculated by application of the Cheng-Prusoff equation as described in Cheng et al., Relationship Between The Inhibition Constant (Ki) and The Concentration of Inhibitor Which Causes 50% Inhibition (IC50) of an Enzymatic Reaction, Biochem. Pharmacol., 22: 3099-31088; (1973).
# [2] = in combination with standard CHF therapy, patients suffering from advanced CHF; cited from earlier work
Structure (SMILES),Ki [1] [nM],reduced cardiac related mortality [2] [%],reduced frequency of hospitalization [2] [%]
"Cc1cc(C2(c3cc(C)c(O)c(C)c3)C(=O)N(Cc3ccc4ccccc4c3)c3ccccc32)cc(C)c1O [Example 59, 3,3-Bis-(4-hydroxy-3,5-dimethyl-phenyl)-1-naphthalen-2-ylmethyl-1,3-dihydro-indol-2-one]",≤ 500,,
"Cc1cc(C2(c3cc(C)c(O)c(C)c3)C(=O)N(Cc3ccc(C(=O)c4ccccc4)cc3)c3ccccc32)cc(C)c1O [Example 71, 1-(4-Benzoyl-benzyl)-3,3-bis-(4-hydroxy-3,5-dimethyl-phenyl)-1,3-dihydro-indol-2-one]",≤ 500,,
"Cc1cc(C2(c3cc(C)c(O)c(C)c3)C(=O)N(CC(=O)NC3CCCCC3)c3ccccc32)cc(C)c1O [Example 96, 2-[3,3-Bis-(4-hydroxy-3,5-dimethyl-phenyl)-2-oxo-2,3-dihydro-indol-1-yl]-N-cyclohexyl-acetamide]",≤ 500,,
"Cc1cc(C2(c3cc(C)c(O)c(C)c3)C(=O)N(Cc3cccnc3)c3ccccc32)cc(C)c1O [Example 103, 3,3-Bis-(4-hydroxy-3,5-dimethyl-phenyl)-1-pyridin-3-ylmethyl-1,3-dihydro-indol-2-one]",≤ 500,,
"C=CCN1C(=O)C(c2cc(C)c(O)c(C)c2)(c2cc(C)c(O)c(C)c2)c2ccccc21 [Example 104, 1-Allyl-3,3-bis-(4-hydroxy-3,5-dimethyl-phenyl)-1,3-dihydro-indol-2-one]",≤ 500,,
"Cc1cc(C2(c3cc(C)c(O)c(C)c3)C(=O)N(CCc3ccccn3)c3ccccc32)cc(C)c1O [Example 122, 3,3-Bis-(4-hydroxy-3,5-dimethyl-phenyl)-1-(2-pyridin-2-yl-ethyl)-1,3-dihydro-indol-2-one]",≤ 500,,
CC(=O)S[C@@H]1CC2=CC(=O)CC[C@]2(C)[C@H]2CC[C@@]3(C)[C@@H](CC[C@@]34CCC(=O)O4)[C@H]12 [spironolactone],,30,35

# From patent US7250442B2, “Dihydroindol-2-one derivatives as steroid hormone nuclear receptor modulators” (Eli Lilly and Company, priority 2003, dated 2007)
